Columns and labels:
[1] = (§1) The drug is tested on Z-011 corresponding to mouse gut metagenome with ENA study accession number: PRJEB37062 and ENA sample accession number: ERS12561811 for biotransformation under anaerobic condition. The drug concentrations were measured over 9 timepoints collected between 0 and 24 hours of incubation by liquid-chromatography-coupled mass spectrometry (LC–MS); conditions: 2 µM
[2] = as §1, with “WLS-220” for “Z-011”, “human” for “mouse”, “ERS12561769” for “ERS12561811”; conditions: 2 µM
[3] = human gut metagenome, 24 h, 2 µM
[4] = as §1, with “Z-010” for “Z-011”, “to” for “to mouse gut”, “ERS12561810” for “ERS12561811”; conditions: 2 µM
[5] = as §1, with “WLS-052” for “Z-011”, “human” for “mouse”, “ERS12561747” for “ERS12561811”; conditions: 2 µM
[6] = as §1, with “WLS-069” for “Z-011”, “human” for “mouse”, “ERS12561748” for “ERS12561811”; conditions: 2 µM
[7] = human gut metagenome, 24 h, 2 µM; remark: listed apart in the source
[8] = as §1, with “Z-020” for “Z-011”, “rabbit” for “mouse”, “ERS12561819” for “ERS12561811”; conditions: 2 µM
[9] = human gut metagenome, 24 h, 2 µM; remark: listed apart in the source
[10] = as §1, with “WLS-310” for “Z-011”, “human” for “mouse”, “ERS12561785” for “ERS12561811”; conditions: 2 µM
[11] = human gut metagenome, 24 h, 2 µM; remark: listed apart in the source
[12] = as §1, with “Z-024” for “Z-011”, “pig” for “mouse”, “ERS12561823” for “ERS12561811”; conditions: 2 µM
[13] = human gut metagenome, 24 h, 2 µM; remark: listed apart in the source
[14] = as §1, with “WLS-039” for “Z-011”, “human” for “mouse”, “ERS12561746” for “ERS12561811”; conditions: 2 µM
[15] = as §1, with “Z-005” for “Z-011”, “to” for “to mouse gut”, “ERS12561805” for “ERS12561811”; conditions: 2 µM
[16] = as §1, with “Z-026” for “Z-011”, “to” for “to mouse gut”, “ERS12561825” for “ERS12561811”; conditions: 2 µM
[17] = human gut metagenome, 24 h, 2 µM; remark: listed apart in the source
[18] = as §1, with “WLS-090” for “Z-011”, “human” for “mouse”, “ERS12561753” for “ERS12561811”; conditions: 2 µM
[19] = as §1, with “WLS-027” for “Z-011”, “human” for “mouse”, “ERS12561744” for “ERS12561811”; conditions: 2 µM
[20] = as §1, with “WLS-082” for “Z-011”, “human” for “mouse”, “ERS12561751” for “ERS12561811”; conditions: 2 µM
Further: call rule not given here.

## CN1CCC(=C2c3ccccc3CCc3cccnc32)CC1.O=C(O)/C=C\C(=O)O.O=C(O)/C=C\C(=O)O [AZATADINE MALEATE]
[1]
  Bacterial Biotransformation: Compound NOT metabolized
[2]
  Bacterial Biotransformation: Compound NOT metabolized
[3]
  Bacterial Biotransformation: Compound NOT metabolized
[4]
  Bacterial Biotransformation: Compound NOT metabolized
[5]
  Bacterial Biotransformation: Compound NOT metabolized
[6]
  Bacterial Biotransformation: Compound NOT metabolized
[7]
  Bacterial Biotransformation: Compound NOT metabolized
[8]
  Bacterial Biotransformation: Compound NOT metabolized
[9]
  Bacterial Biotransformation: Compound NOT metabolized
[10]
  Bacterial Biotransformation: Compound NOT metabolized
[11]
  Bacterial Biotransformation: Compound NOT metabolized
[12]
  Bacterial Biotransformation: Compound NOT metabolized
[13]
  Bacterial Biotransformation: Compound NOT metabolized
[14]
  Bacterial Biotransformation: Compound NOT metabolized
[15]
  Bacterial Biotransformation: Compound NOT metabolized
[16]
  Bacterial Biotransformation: Compound NOT metabolized
[17]
  Bacterial Biotransformation: Compound NOT metabolized
[18]
  Bacterial Biotransformation: Compound NOT metabolized
[19]
  Bacterial Biotransformation: Compound NOT metabolized
[20]
  Bacterial Biotransformation: Compound NOT metabolized

## CCCc1nc(C(C)(C)O)c(C(=O)OCc2oc(=O)oc2C)n1Cc1ccc(-c2ccccc2-c2nnn[nH]2)cc1 [OLMESARTAN MEDOXOMIL]
[1]
  Bacterial Biotransformation: Compound NOT metabolized
[2]
  Bacterial Biotransformation: Compound metabolized
[3]
  Bacterial Biotransformation: Compound metabolized
[4]
  Bacterial Biotransformation: Compound metabolized
[5]
  Bacterial Biotransformation: Compound metabolized
[6]
  Bacterial Biotransformation: Compound metabolized
[7]
  Bacterial Biotransformation: Compound metabolized
[8]
  Bacterial Biotransformation: Compound metabolized
[9]
  Bacterial Biotransformation: Compound metabolized
[10]
  Bacterial Biotransformation: Compound metabolized
[11]
  Bacterial Biotransformation: Compound NOT metabolized
[12]
  Bacterial Biotransformation: Compound metabolized
[13]
  Bacterial Biotransformation: Compound metabolized
[14]
  Bacterial Biotransformation: Compound metabolized
[15]
  Bacterial Biotransformation: Compound metabolized
[16]
  Bacterial Biotransformation: Compound NOT metabolized
[17]
  Bacterial Biotransformation: Compound NOT metabolized
[18]
  Bacterial Biotransformation: Compound NOT metabolized
[19]
  Bacterial Biotransformation: Compound metabolized
[20]
  Bacterial Biotransformation: Compound metabolized

## N#Cc1ccc(C(c2ccc(C#N)cc2)n2cncn2)cc1 [LETROZOLE]
[1]
  Bacterial Biotransformation: Compound NOT metabolized
[2]
  Bacterial Biotransformation: Compound NOT metabolized
[3]
  Bacterial Biotransformation: Compound NOT metabolized
[4]
  Bacterial Biotransformation: Compound NOT metabolized
[5]
  Bacterial Biotransformation: Compound NOT metabolized
[6]
  Bacterial Biotransformation: Compound NOT metabolized
[7]
  Bacterial Biotransformation: Compound NOT metabolized
[8]
  Bacterial Biotransformation: Compound NOT metabolized
[9]
  Bacterial Biotransformation: Compound NOT metabolized
[10]
  Bacterial Biotransformation: Compound NOT metabolized
[11]
  Bacterial Biotransformation: Compound NOT metabolized
[12]
  Bacterial Biotransformation: Compound metabolized
[13]
  Bacterial Biotransformation: Compound NOT metabolized
[14]
  Bacterial Biotransformation: Compound NOT metabolized
[15]
  Bacterial Biotransformation: Compound NOT metabolized
[16]
  Bacterial Biotransformation: Compound metabolized
[17]
  Bacterial Biotransformation: Compound NOT metabolized
[18]
  Bacterial Biotransformation: Compound NOT metabolized
[19]
  Bacterial Biotransformation: Compound NOT metabolized
[20]
  Bacterial Biotransformation: Compound NOT metabolized

## CC(C)c1nc(CN(C)C(=O)N[C@H](C(=O)N[C@@H](Cc2ccccc2)C[C@H](O)[C@H](Cc2ccccc2)NC(=O)OCc2cncs2)C(C)C)cs1 [RITONAVIR]
[1]
  Bacterial Biotransformation: Compound metabolized
[2]
  Bacterial Biotransformation: Compound metabolized
[3]
  Bacterial Biotransformation: Compound metabolized
[4]
  Bacterial Biotransformation: Compound metabolized
[5]
  Bacterial Biotransformation: Compound metabolized
[6]
  Bacterial Biotransformation: Compound metabolized
[7]
  Bacterial Biotransformation: Compound metabolized
[8]
  Bacterial Biotransformation: Compound metabolized
[9]
  Bacterial Biotransformation: Compound NOT metabolized
[10]
  Bacterial Biotransformation: Compound metabolized
[11]
  Bacterial Biotransformation: Compound NOT metabolized
[12]
  Bacterial Biotransformation: Compound NOT metabolized
[13]
  Bacterial Biotransformation: Compound metabolized
[14]
  Bacterial Biotransformation: Compound metabolized
[15]
  Bacterial Biotransformation: Compound metabolized
[16]
  Bacterial Biotransformation: Compound metabolized
[17]
  Bacterial Biotransformation: Compound NOT metabolized
[18]
  Bacterial Biotransformation: Compound metabolized
[19]
  Bacterial Biotransformation: Compound metabolized
[20]
  Bacterial Biotransformation: Compound metabolized

## CC(=O)CC(c1ccccc1)c1c(O)c2ccccc2oc1=O (stereo not given) [WARFARIN]
[1]
  Bacterial Biotransformation: Compound NOT metabolized
[2]
  Bacterial Biotransformation: Compound metabolized
[3]
  Bacterial Biotransformation: Compound metabolized
[4]
  Bacterial Biotransformation: Compound metabolized
[5]
  Bacterial Biotransformation: Compound metabolized
[6]
  Bacterial Biotransformation: Compound metabolized
[7]
  Bacterial Biotransformation: Compound metabolized
[8]
  Bacterial Biotransformation: Compound metabolized
[9]
  Bacterial Biotransformation: Compound metabolized
[10]
  Bacterial Biotransformation: Compound metabolized
[11]
  Bacterial Biotransformation: Compound NOT metabolized
[12]
  Bacterial Biotransformation: Compound metabolized
[13]
  Bacterial Biotransformation: Compound metabolized
[14]
  Bacterial Biotransformation: Compound NOT metabolized
[15]
  Bacterial Biotransformation: Compound NOT metabolized
[16]
  Bacterial Biotransformation: Compound NOT metabolized
[17]
  Bacterial Biotransformation: Compound metabolized
[18]
  Bacterial Biotransformation: Compound metabolized
[19]
  Bacterial Biotransformation: Compound metabolized
[20]
  Bacterial Biotransformation: Compound metabolized

## COc1ccc2c3c1O[C@H]1C[C@@H](O)C=C[C@@]31CCN(C)C2 [GALANTAMINE]
[1]
  Bacterial Biotransformation: Compound NOT metabolized
[2]
  Bacterial Biotransformation: Compound metabolized
[3]
  Bacterial Biotransformation: Compound NOT metabolized
[4]
  Bacterial Biotransformation: Compound metabolized
[5]
  Bacterial Biotransformation: Compound NOT metabolized
[6]
  Bacterial Biotransformation: Compound NOT metabolized
[7]
  Bacterial Biotransformation: Compound metabolized
[8]
  Bacterial Biotransformation: Compound NOT metabolized
[9]
  Bacterial Biotransformation: Compound NOT metabolized
[10]
  Bacterial Biotransformation: Compound metabolized
[11]
  Bacterial Biotransformation: Compound NOT metabolized
[12]
  Bacterial Biotransformation: Compound NOT metabolized
[13]
  Bacterial Biotransformation: Compound metabolized
[14]
  Bacterial Biotransformation: Compound NOT metabolized
[15]
  Bacterial Biotransformation: Compound NOT metabolized
[16]
  Bacterial Biotransformation: Compound NOT metabolized
[17]
  Bacterial Biotransformation: Compound NOT metabolized
[18]
  Bacterial Biotransformation: Compound metabolized
[19]
  Bacterial Biotransformation: Compound NOT metabolized
[20]
  Bacterial Biotransformation: Compound NOT metabolized

## Nc1c2c(nc3ccccc13)CCCC2 [TACRINE]
[1]
  Bacterial Biotransformation: Compound NOT metabolized
[2]
  Bacterial Biotransformation: Compound NOT metabolized
[3]
  Bacterial Biotransformation: Compound NOT metabolized
[4]
  Bacterial Biotransformation: Compound NOT metabolized
[5]
  Bacterial Biotransformation: Compound NOT metabolized
[6]
  Bacterial Biotransformation: Compound metabolized
[7]
  Bacterial Biotransformation: Compound metabolized
[8]
  Bacterial Biotransformation: Compound NOT metabolized
[9]
  Bacterial Biotransformation: Compound NOT metabolized
[10]
  Bacterial Biotransformation: Compound metabolized
[11]
  Bacterial Biotransformation: Compound NOT metabolized
[12]
  Bacterial Biotransformation: Compound NOT metabolized
[13]
  Bacterial Biotransformation: Compound metabolized
[14]
  Bacterial Biotransformation: Compound NOT metabolized
[15]
  Bacterial Biotransformation: Compound NOT metabolized
[16]
  Bacterial Biotransformation: Compound NOT metabolized
[17]
  Bacterial Biotransformation: Compound NOT metabolized
[18]
  Bacterial Biotransformation: Compound metabolized
[19]
  Bacterial Biotransformation: Compound NOT metabolized
[20]
  Bacterial Biotransformation: Compound NOT metabolized

## O=P(O)(O)O.c1ccc(CN(CC2=NCCN2)c2ccccc2)cc1 [ANTAZOLINE PHOSPHATE]
[1]
  Bacterial Biotransformation: Compound NOT metabolized
[2]
  Bacterial Biotransformation: Compound metabolized
[3]
  Bacterial Biotransformation: Compound NOT metabolized
[4]
  Bacterial Biotransformation: Compound metabolized
[5]
  Bacterial Biotransformation: Compound NOT metabolized
[6]
  Bacterial Biotransformation: Compound NOT metabolized
[7]
  Bacterial Biotransformation: Compound metabolized
[8]
  Bacterial Biotransformation: Compound NOT metabolized
[9]
  Bacterial Biotransformation: Compound NOT metabolized
[10]
  Bacterial Biotransformation: Compound NOT metabolized
[11]
  Bacterial Biotransformation: Compound NOT metabolized
[12]
  Bacterial Biotransformation: Compound metabolized
[13]
  Bacterial Biotransformation: Compound metabolized
[14]
  Bacterial Biotransformation: Compound NOT metabolized
[15]
  Bacterial Biotransformation: Compound NOT metabolized
[16]
  Bacterial Biotransformation: Compound NOT metabolized
[17]
  Bacterial Biotransformation: Compound NOT metabolized
[18]
  Bacterial Biotransformation: Compound metabolized
[19]
  Bacterial Biotransformation: Compound NOT metabolized
[20]
  Bacterial Biotransformation: Compound NOT metabolized
